Data reported in patent US6737383B1, “Herbicidal oxadiazolidines” (priority 1999, dated 2004).

Legend:
bedstraw = experiment: Test B pre/postemergence bedstraw; format: in vivo, Galium aparine
Outline: (§1)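 Herbicidal effect was estimated by eye on a ten-point control scale after plants spent twelve to sixteen days in a greenhouse following soil or foliar treatment. Foliar sprays targeted plants at one to four leaves; all doses were formulated in a non-phytotoxic solvent with surfactant.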

cocklebur = experiment: Test B pre/postemergence cocklebur; format: in vivo, Xanthium strumarium
Outline: as §1

corn = experiment: Test B pre/postemergence corn; format: in vivo, Zea mays
Outline: as §1

crabgrass = experiment: Test B pre/postemergence crabgrass; format: in vivo, Digitaria sanguinalis
Outline: as §1

giant foxtail = experiment: Test B pre/postemergence giant foxtail; format: in vivo, Setaria faberii
Outline: as §1

morningglory = experiment: Test B pre/postemergence morningglory; format: in vivo, Ipomoea hederacea
Outline: as §1

pigweed = experiment: Test B pre/postemergence pigweed; format: in vivo, Amaranthus retroflexus
Outline: as §1

rape = experiment: Test B pre/postemergence rape; format: in vivo, Brassica napus
Outline: as §1

soybean = experiment: Test B pre/postemergence soybean; format: in vivo, Glycine max
Outline: as §1

velvetleaf = experiment: Test B pre/postemergence velvetleaf; format: in vivo, Abutilon theophrasti; conditions: for Plant response rating, Velvetleaf: Rate 250 g/ha
Outline: as §1

wheat = experiment: Test B pre/postemergence wheat; format: in vivo, Triticum aestivum; conditions: for Plant response rating, Wheat: Rate 250 g/ha
Outline: as §1

wild oat = experiment: Test B pre/postemergence wild oat; format: in vivo, Avena fatua; conditions: for Plant response rating, Wild oats: Rate 250 g/ha
Outline: as §1

purple nutsedge = experiment: Test B pre/postemergence purple nutsedge; format: in vivo, Cyperus rotundus
Outline: as §1

rice = experiment: Test B flood test rice; format: in vivo, Oryza sativa
Outline: (§2)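 Each value is a visual injury score relative to controls, with 10 meaning complete control and 0 no effect. Evaluation took place twelve to sixteen days after the 2-leaf-stage plants were treated and kept in the greenhouse.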

smallflower flatsedge = experiment: Test B flood test smallflower flatsedge; format: in vivo, Cyperus difformis
Outline: as §2

duck salad = experiment: Test B flood test duck salad; format: in vivo, Heteranthera limosa
Outline: as §2

[1] = Postemergence, Rate 250 g/ha, scale 0 to 10, 0 no effect, 10 complete control
[2] = Preemergence, Rate 62 g/ha, scale 0 to 10 (0 no effect, 10 complete control)
[3] = Preemergence, Rate 125 g/ha, scale 0 to 10 (0 no effect, 10 complete control)
[4] = Preemergence, Rate 250 g/ha, scale of 0 to 10 where 0 is no effect and 10 is complete control
[5] = Preemergence, Rate 500 g/ha, scale 0 to 10 (0 no effect, 10 complete control)
[6] = Rate 500 g/ha, Postemergence, scale 0 to 10, 0 no effect, 10 complete control
[7] = Postemergence, Rate 125 g/ha, scale of 0 to 10 where 0 is no effect and 10 is complete control
[8] = Rate 62 g/ha, Postemergence, scale of 0 to 10 where 0 is no effect and 10 is complete control
[9] = Rate 250 g/ha, Postemergence, scale 0 to 10, 0 is no effect, 10 is complete control
[10] = Preemergence, Rate 125 g/ha, 0 is no effect, 10 is complete control
[11] = Preemergence, scale of 0 to 10 where 0 is no effect and 10 is complete control
[12] = Postemergence, scale 0 to 10, 0 is no effect, 10 is complete control
[13] = Postemergence (flood test species), Rate 125 g/ha, scale of 0 to 10 where 0 is no effect and 10 is complete control
[14] = Rate 62 g/ha, Postemergence section, flood test species, scale of 0 to 10 where 0 is no effect and 10 is complete control
[15] = Rate 250 g/ha, Postemergence (flood test), scale 0 to 10, 0 is no effect, 10 is complete control
[16] = Rate 500 g/ha, listed under Postemergence (flood test species), scale 0 to 10, 0 no effect, 10 complete control

CC(C)N(C(=O)n1oc(=O)n(Cc2ccccc2)c1=O)c1ccc(Cl)cc1 [Compound 106]
0: Bedstraw plant response rating (bedstraw; Postemergence, Rate 62 g/ha, scale 0 to 10, 0 is no effect, 10 is complete control) | Bedstraw plant response rating (bedstraw; [2]) | Plant response rating, Bedstraw (bedstraw; [3]) | Bedstraw plant response rating (bedstraw; Rate 125 g/ha, Postemergence, scale 0 to 10, 0 no effect, 10 complete control) | Cocklebur plant response rating (cocklebur; [2]) | Plant response rating, Cocklebur (cocklebur; [3]) | Plant response rating, Cocklebur (cocklebur; [4]) | Cocklebur plant response rating (cocklebur; [5]) | Cocklebur plant response rating (cocklebur; [8]) | Corn plant response rating (corn; [7]) | Corn plant response rating (corn; [1]) | Corn plant response rating (corn; [2]) | Plant response rating, Corn (corn; [3]) | Plant response rating, Corn (corn; [4]) | Corn plant response rating (corn; [5]) | Corn plant response rating (corn; [8]) | Corn plant response rating (corn; [6]) | Crabgrass plant response rating (crabgrass; [7]) | Crabgrass plant response rating (crabgrass; [2]) | Plant response rating, Crabgrass (crabgrass; [3]) | Crabgrass plant response rating (crabgrass; [8]) | Giant foxtail plant response rating (giant foxtail; [8]) | Morningglory plant response rating (morningglory; [2]) | Plant response rating, Morningglory (morningglory; [3]) | Plant response rating, Morningglory (morningglory; [4]) | Morningglory plant response rating (morningglory; [5]) | Redroot pigweed plant response rating (pigweed; [7]) | Redroot pigweed plant response rating (pigweed; [2]) | Plant response rating, Redroot pigweed (pigweed; [3]) | Plant response rating, Redroot pigweed (pigweed; [4]) | Redroot pigweed plant response rating (pigweed; [8]) | Plant response rating, Redroot pigweed (pigweed; [9]) | Rape plant response rating (rape; [7]) | Rape plant response rating (rape; [1]) | Rape plant response rating (rape; [2]) | Plant response rating, Rape (rape; [3]) | Plant response rating, Rape (rape; [4]) | Rape plant response rating (rape; [8]) | Rape plant response rating (rape; [6]) | Soybean plant response rating (soybean; [7]) | Soybean plant response rating (soybean; [2]) | Plant response rating, Soybean (soybean; [3]) | Plant response rating, Soybean (soybean; [4]) | Soybean plant response rating (soybean; [5]) | Soybean plant response rating (soybean; [8]) | Velvetleaf plant response rating (velvetleaf; [7]) | Velvetleaf plant response rating (velvetleaf; [2]) | Velvetleaf plant response rating (0 to 10 scale) (velvetleaf; [10]) | Plant response rating, Velvetleaf (velvetleaf; [11]) | Velvetleaf plant response rating (velvetleaf; [5]) | Velvetleaf plant response rating (velvetleaf; [8]) | Wheat plant response rating (wheat; [7]) | Wheat plant response rating (wheat; [2]) | Wheat plant response rating (0 to 10 scale) (wheat; [10]) | Plant response rating, Wheat (wheat; [11]) | Wheat plant response rating (wheat; [5]) | Wheat plant response rating (wheat; [8]) | Plant response rating, Wheat (wheat; [12]) | Wheat plant response rating (wheat; [6]) | Wild oats plant response rating (wild oat; [7]) | Wild oats plant response rating (wild oat; [2]) | Wild oats plant response rating (0 to 10 scale) (wild oat; [10]) | Plant response rating, Wild oats (wild oat; [11]) | Wild oats plant response rating (wild oat; [5]) | Wild oats plant response rating (wild oat; [8]) | Plant response rating, Wild oats (wild oat; [12]) | Wild oats plant response rating (wild oat; [6]) | Nutsedge plant response rating (purple nutsedge; [7]) | Nutsedge plant response rating (purple nutsedge; [1]) | Nutsedge plant response rating (purple nutsedge; [2]) | Plant response rating, Nutsedge (purple nutsedge; [3]) | Plant response rating, Nutsedge (purple nutsedge; [4]) | Nutsedge plant response rating (purple nutsedge; [5]) | Nutsedge plant response rating (purple nutsedge; [8]) | Nutsedge plant response rating (purple nutsedge; [6]) | Rice plant response rating (rice; [13]) | Rice plant response rating (rice; [14]) | Plant response rating, Rice (rice; [15]) | Rice plant response rating (rice; [16]) | S. Flatsedge plant response rating (smallflower flatsedge; [13]) | S. Flatsedge plant response rating (smallflower flatsedge; [14]) | Plant response rating, S. Flatsedge (smallflower flatsedge; [15]) | S. Flatsedge plant response rating (smallflower flatsedge; [16]) | Ducksalad plant response rating (duck salad; [13]) | Ducksalad plant response rating (duck salad; [14]) | Ducksalad plant response rating (duck salad; [16]) | Ducksalad plant response rating (duck salad; flood test, listed under Postemergence, Rate 250 g/ha, scale 0 to 10, 0 no effect, 10 complete control)
6: Crabgrass plant response rating (crabgrass; [6]) | Morningglory plant response rating (morningglory; [8]) | Redroot pigweed plant response rating (pigweed; [6])
8: Plant response rating, Crabgrass (crabgrass; [4]) | Crabgrass plant response rating (crabgrass; [5]) | Morningglory plant response rating (morningglory; [1])
3: Bedstraw plant response rating (bedstraw; [1]) | Plant response rating, Bedstraw (bedstraw; [4]) | Crabgrass plant response rating (crabgrass; [1]) | Giant foxtail plant response rating (giant foxtail; [1]) | Giant foxtail plant response rating (giant foxtail; [6])
5: Plant response rating, Giant foxtail (giant foxtail; [3])
7: Bedstraw plant response rating (bedstraw; [6]) | Morningglory plant response rating (morningglory; [7])
2: Cocklebur plant response rating (cocklebur; [7]) | Cocklebur plant response rating (cocklebur; [1]) | Giant foxtail plant response rating (giant foxtail; [7]) | Giant foxtail plant response rating (giant foxtail; [2]) | Rape plant response rating (rape; [5]) | Plant response rating, Velvetleaf (velvetleaf; [12]) | Velvetleaf plant response rating (velvetleaf; [6])
1: Plant response rating, Soybean (soybean; [9]) | Soybean plant response rating (soybean; [6])
4: Bedstraw plant response rating (bedstraw; [5]) | Cocklebur plant response rating (cocklebur; [6]) | Redroot pigweed plant response rating (pigweed; [5])
10: Plant response rating, Giant foxtail (giant foxtail; [4]) | Giant foxtail plant response rating (giant foxtail; [5]) | Morningglory plant response rating (morningglory; [6])
